# From US20160221974A1, “SODIUM CHANNEL MODULATORS FOR THE TREATMENT OF PAIN AND DIABETES” (CHROMOCELL CORPORATION, priority 2013, published 2016)
# “And” between values parts separate entries of the source, which are not always exact repeats. Equal values may be shown once.
# Legend:
# [1] = test system: rat streptozotocin-induced model for diabetes; assay: Evaluation of Anti-Diabetic Effect in In Vivo Model of Diabetes (chronic dosing, STZ rats)
# Description: 250-350 g male Sprague-Dawley rats from appropriate animal resources were used. Type I diabetes was induced by a single injection, (intraperitoneally, intravenously or intramuscularly) of 50-100 mg/kg of streptozotocin (STZ, Sigma Chemicals, St. Louis, Mo. or VWR) freshly dissolved in sodium citrate (0.01 M, pH 4.5). Sham animals were given either saline or same vehicle injection. Following a wait time of about two days, inducement of diabetes was confirmed in STZ-injected rats by measuring the plasma glucose concentrations in blood samples from the tail vein after a fast of 6 hours. The glucose level was assayed using a mini glucose monitor (kit for AlphaTRAK 2 meter, available from Abbott Laboratories). Screening for hyperglycemia in STZ-injected animals was done, with only animals with a final blood glucose level ≧300 mg/dl being selected for the study. Glucose levels in the sham animals remained normal. Other parameters (water intake, food intake, and bodyweight) were monitored before the treatment with a test compound and after the cessation of the treatment.
# A Compound provided herein is tested in the rat STZ model of diabetes by chronic administration of the Compound for at least 7 days to evaluate analgesic and antidiabetic effects of the Compound. The analgesic effect of the Compound can be evaluated using behavioral tests (e.g., von Frey test, plantar test, and paw pressure test described herein below). The anti-diabetic effect of the Compound can be evaluated based on the improvement in the glucose level, food intake, water intake in the compound treated group compared to the untreated vehicle group and the normal, non-diabetic sham control group.
# Diabetes mellitus was induced in rats as described in paragraph [00327] above.
# The baseline glucose levels, daily food and water intake and behavioral tests (von Frey, paw pressure and plantar tests) were measured for each animal once weekly for 28 weeks, and once every 2-4 weeks for an additional 28-30 weeks. At a selected week (started from week 6) for a compound test, diabetic rats were divided into two test groups: a vehicle control group and a test compound treated group (n=10 each group). A sham group (saline only without STZ i.p. injection, n=10) was added as a normal, non-diabetic control group. To minimize animal stress associated with repeated daily handling, the compound treated diabetic group of animals received the test compound at a daily dose of 60 mg/kg in their drinking water containing 2% PEG600 and 1% glycofurol (the test compound concentration in the drinking water was based on the individual animal's average daily water consumption as determined the pre-dosing period, which averaged 0.1-0.11 mg/ml). The vehicle control group received drinking water containing 2% PEG600 and 1% glycofurol without the test compound. The treatment continued for 9 days. On day 10 drinking water with test compound or vehicle (2% PEG600 and 1% glycofurol) was replaced with plain drinking water in all groups. The monitoring of glucose levels, food and water intake as well as behavior tests continued for additional 28-30 weeks. […] A gradual, significant reversal of up to 90% of mechanical allodynia (von Frey test) was achieved after 9 days of treatment.
# FIGS. 1-3 show food intake, glucose level, and water intake, respectively, for the vehicle control group, the test compound treated group (compound 49, 60 mg/kg/day), and the sham group. […] The significant reduction of food intake, glucose level, and water intake of the compound treated group compared to the vehicle control group continues through week 52. […] Since the standard deviation in the sham groups are less than 5%, no error bars are shown.
# hNaV1.7 = target: T1, hNaV1.7 (Homo sapiens, UniProt Q15858); assay: FDSS Membrane Potential In-Vitro Assay; format: cell-based; conditions: stimulation with veratridine and scorpion venom, read-out: NaV1.7 IC50
# T1 construct: expressed in transfected cells
# T1 sequence (Q15858 whole entry): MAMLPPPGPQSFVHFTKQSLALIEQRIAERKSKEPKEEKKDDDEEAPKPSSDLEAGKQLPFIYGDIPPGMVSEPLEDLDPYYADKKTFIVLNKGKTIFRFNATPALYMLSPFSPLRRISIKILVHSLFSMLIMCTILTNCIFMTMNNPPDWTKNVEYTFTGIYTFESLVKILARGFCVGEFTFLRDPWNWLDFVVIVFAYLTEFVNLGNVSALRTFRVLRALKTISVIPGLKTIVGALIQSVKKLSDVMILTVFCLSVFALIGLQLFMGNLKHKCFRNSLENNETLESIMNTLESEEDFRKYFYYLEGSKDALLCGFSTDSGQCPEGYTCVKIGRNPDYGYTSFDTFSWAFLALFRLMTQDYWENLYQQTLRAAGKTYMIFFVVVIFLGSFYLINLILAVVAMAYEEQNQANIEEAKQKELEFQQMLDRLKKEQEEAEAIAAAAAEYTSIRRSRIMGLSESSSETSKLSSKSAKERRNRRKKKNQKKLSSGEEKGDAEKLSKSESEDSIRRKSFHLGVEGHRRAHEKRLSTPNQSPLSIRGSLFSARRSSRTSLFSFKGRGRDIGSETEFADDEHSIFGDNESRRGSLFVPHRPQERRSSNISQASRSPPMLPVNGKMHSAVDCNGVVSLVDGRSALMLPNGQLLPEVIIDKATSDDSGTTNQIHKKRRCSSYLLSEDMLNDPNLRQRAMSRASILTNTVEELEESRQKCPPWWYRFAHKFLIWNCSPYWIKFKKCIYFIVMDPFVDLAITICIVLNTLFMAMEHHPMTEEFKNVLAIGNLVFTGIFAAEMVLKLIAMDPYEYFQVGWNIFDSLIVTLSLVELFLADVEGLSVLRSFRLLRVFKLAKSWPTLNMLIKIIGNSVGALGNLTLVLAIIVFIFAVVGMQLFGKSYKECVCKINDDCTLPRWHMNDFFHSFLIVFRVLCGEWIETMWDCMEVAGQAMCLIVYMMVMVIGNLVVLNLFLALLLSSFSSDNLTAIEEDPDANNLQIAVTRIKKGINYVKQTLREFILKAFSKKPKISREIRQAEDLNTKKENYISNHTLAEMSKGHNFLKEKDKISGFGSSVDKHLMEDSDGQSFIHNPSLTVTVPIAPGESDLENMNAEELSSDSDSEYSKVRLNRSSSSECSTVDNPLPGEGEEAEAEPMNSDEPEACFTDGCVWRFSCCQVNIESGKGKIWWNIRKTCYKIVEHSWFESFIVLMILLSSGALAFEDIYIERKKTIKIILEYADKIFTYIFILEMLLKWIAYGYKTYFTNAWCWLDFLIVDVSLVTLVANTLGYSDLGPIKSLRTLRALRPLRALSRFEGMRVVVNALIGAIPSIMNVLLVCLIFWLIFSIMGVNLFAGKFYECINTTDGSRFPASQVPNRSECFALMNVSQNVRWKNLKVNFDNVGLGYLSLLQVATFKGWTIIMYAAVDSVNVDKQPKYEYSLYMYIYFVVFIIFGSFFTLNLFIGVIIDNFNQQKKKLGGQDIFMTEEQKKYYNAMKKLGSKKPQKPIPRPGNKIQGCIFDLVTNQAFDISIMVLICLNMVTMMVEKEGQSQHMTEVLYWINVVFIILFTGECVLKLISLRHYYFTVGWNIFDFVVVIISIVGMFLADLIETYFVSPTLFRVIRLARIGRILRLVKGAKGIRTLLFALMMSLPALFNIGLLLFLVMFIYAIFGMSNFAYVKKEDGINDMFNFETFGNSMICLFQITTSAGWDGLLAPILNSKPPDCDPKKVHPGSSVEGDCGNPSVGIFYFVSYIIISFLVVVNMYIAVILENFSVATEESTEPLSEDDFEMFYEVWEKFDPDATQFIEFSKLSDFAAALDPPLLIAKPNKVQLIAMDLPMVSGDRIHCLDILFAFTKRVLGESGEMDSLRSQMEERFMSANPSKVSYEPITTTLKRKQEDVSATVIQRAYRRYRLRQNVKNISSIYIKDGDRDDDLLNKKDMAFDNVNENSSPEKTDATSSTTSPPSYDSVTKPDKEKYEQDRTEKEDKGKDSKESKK
# T1 sequence (Q07699 19-218 partner): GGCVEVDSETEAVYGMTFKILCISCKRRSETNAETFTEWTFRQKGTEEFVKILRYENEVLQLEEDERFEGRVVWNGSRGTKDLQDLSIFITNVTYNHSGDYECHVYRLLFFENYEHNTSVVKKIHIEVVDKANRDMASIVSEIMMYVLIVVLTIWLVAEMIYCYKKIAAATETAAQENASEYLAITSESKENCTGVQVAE
# T1 sequence (O60939 30-215 partner): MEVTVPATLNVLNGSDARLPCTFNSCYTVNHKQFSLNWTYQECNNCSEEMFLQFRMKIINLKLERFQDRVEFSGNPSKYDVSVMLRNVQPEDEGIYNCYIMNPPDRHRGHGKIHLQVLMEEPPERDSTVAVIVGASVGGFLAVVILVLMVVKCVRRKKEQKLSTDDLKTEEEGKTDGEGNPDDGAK
# [2] = test system: Partial Sciatic Nerve Ligation (PSNL) model; assay: Partial Sciatic Nerve Ligation (PSNL) model, behavioral tests; format: in vivo, male Sprague-Dawley rats; conditions: oral route, relative to vehicle control, measured 30 minutes post dose
# Excerpt: 250-350 g male Sprague-Dawley rats from appropriate animal resources were anesthetized with 2.5% isoflurane. A hind leg was shaved, and the skin was sterilized with 0.5% iodine and 75% alcohol. All surgical instruments were sterilized before surgery and between animals. An incision (1 cm) was made at the middle of the thigh in parallel with the muscle and sciatic nerve distribution. The muscle was exposed and dissected at the joint of two muscles (biceps femoris) indicated by the light colored (white) fascia line. The sciatic nerve was just beneath the muscle and was hooked out using an 18-20 G feeding needle (90 degree curved); the sciatic nerve was flat on the feeding needle and approximately one-half the diameter of the nerve is tightly ligated with 7-0 silk suture. A response of the injured leg twitch indicates the success of ligation. After checking hemostasis, bupivicaine 0.1-0.2 ml (0.125%) was given at the incision area, the muscle and the adjacent fascia are closed with 5-0 absorbable sutures. The skin was sutured with absorbable suture and tissue glue. The control group using sham surgery animals (about 8-10 animals) underwent the same surgical procedure but with no nerve ligation. Animals were returned to their home cage after recovery from anesthesia.
# The analgesic effect of the test compound was expressed as a percent recovery (% Recovery) relative to the sham control group baseline and calculated according to the formula:
# % Recovery=100%−{[(sham mean−test compound mean)/(sham mean−vehicle mean)]×100%}
# wherein “sham mean” refers to average score in the sham-operated group; “test compound mean” refers to average score in the PSNL-group (animals with partial sciatic nerve ligation) or diabetic group (animals treated with STZ) treated with a test compound; “vehicle mean” refers to average score in the PSNL-group or diabetic group treated with vehicle only. The above formula was used to obtain data for the following in vivo behavioral tests.
# The following behavioral tests were conducted (i.e., plantar test, paw pressure test, and von Frey test) started on day 3 and thereafter once weekly following surgery or use of a diabetic inducer. […]
# Rats were placed on the glass surface of a thermal testing apparatus (Model 336, IITC/Life Science Instruments, Woodland Hills, Calif.) and were allowed to acclimate for 10 min before testing on the glass surface at room temperature. […] The paw withdrawal latency was recorded by a digital timer. The thermal threshold was determined as the mean withdrawal latency from two to three consecutive trials of both hindpaws. […]
# Animals were placed under clear plastic boxes above a wire mesh floor, which allowed full access to the paws. […] Mechanical paw withdrawal thresholds (PWTs) were measured with the up-down testing paradigm. […]
# [3] = diabetic rats, 60 mg/kg/day in drinking water for 9 days
# [4] = measured on day 11, two days after compound withdrawal
compound,measurement,setting,value
"NC(=O)CNCCCc1cc(Cl)ccc1Oc1cc(F)c(S(=O)(=O)Nc2cscn2)cc1Cl [Compound 49, 2-((3-(5-chloro-2-(2-chloro-5-fluoro-4-(N-(thiazol-4-yl)sulfamoyl)phenoxy)phenyl)propyl)amino)acetamide]",food intake,"[1]; diabetic rats, 60 mg/kg/day for 9 days, compared to vehicle control group, continues through week 52 (FIG. 1)",significantly reduced
same,glucose level,"[1]; diabetic rats, 60 mg/kg/day for 9 days, compared to vehicle control group, continues through week 52 (FIG. 2)",significantly reduced
same,water intake,"[1]; diabetic rats, 60 mg/kg/day for 9 days, compared to vehicle control group, continues through week 52 (FIG. 3)",significantly reduced
same,mechanical pain (paw pressure test),[1]; [3],rapid and sustained improvement
same,thermal pain (plantar test),[1]; [3],rapid and sustained improvement
same,tachyphylaxis,"[1]; diabetic rats, 60 mg/kg/day in drinking water for 9 days, paw pressure and plantar tests",no tachyphylaxis
same,reversal of mechanical allodynia (von Frey test),"[1]; diabetic rats, 60 mg/kg/day in drinking water, after 9 days of treatment",up to 90%
same,time allodynia threshold (von Frey test) stayed significantly above the pretreatment level baseline after compound withdrawal,"[1]; diabetic rats, after 9 days of 60 mg/kg/day",up to 5 days
same,general appearance and/or health,"[1]; diabetic rats, after treatment with 60 mg/kg/day stopped on day 9",improvements in general appearance and/or health
same,paw pressure test threshold after compound withdrawal,[1]; [4],returned to the pretreatment baseline
same,plantar test threshold after compound withdrawal,[1]; [4],returned to the pretreatment baseline
same,IC50,hNaV1.7,100 to 500 nM and 500 to 1000 nM
same,effect in the tactile allodynia test,[2],no significant effect
